Measured values: article PMC11995724, “Antibiotic target discovery by integrated phenotypic and activity-based profiling of electrophilic fragments” (Cell chemical biology, 2025)
Structures can show the parent of a compound that is named as a salt.

Assay: in vitro
Conditions: human, hek293t cells
`O=C(CCl)NC1CCS(=O)(=O)CC1` [6-M08, 2-chloro-N-(1,1-dioxo-1lambda6-thian-4-yl)acetamide] showed a viability at 48 h, 25 µM of 53.7%. With `COc1cc(C)c(C(C)NC(=O)CCl)cc1OC` (centres unmarked) [6-M09, 2-chloro-N-[1-(4,5-dimethoxy-2-methylphenyl)ethyl]acetamide] the viability at 48 h, 25 µM was 3.89%. In the case of `CCOc1ccccc1NC(=O)C(C)Cl` (centres unmarked) [6-M10, 2-chloro-N-(2-ethoxyphenyl)propanamide], the viability at 48 h, 25 µM is reported as 93.2%. `CCN(Cc1ccc(Cl)s1)C(=O)CCl` [6-M11, 2-chloro-N-[(5-chlorothiophen-2-yl)methyl]-N-ethylacetamide] showed a viability at 48 h, 25 µM of 0.655%. Work on `O=C(CCl)NC(c1ccccc1)c1ccccc1` [6-M12, 2-chloro-N-(diphenylmethyl)acetamide] yielded a viability at 48 h, 25 µM of 0.81%. For `CC(Cl)C(=O)Nc1ccc(S(=O)(=O)N2CCCC2)cc1` (centres unmarked) [6-M13, 2-chloro-N-[4-(pyrrolidine-1-sulfonyl)phenyl]propanamide], the viability at 48 h, 25 µM was 117%. `NC(=O)c1cc(-c2ccccc2)sc1NC(=O)CCl` [6-M14, 2-(2-chloroacetamido)-5-phenylthiophene-3-carboxamide] showed a viability at 48 h, 25 µM of 0.446%. In the case of `COc1ccc(CN(C)C(=O)CCl)cc1` [6-M15, 2-chloro-N-[(4-methoxyphenyl)methyl]-N-methylacetamide], the viability at 48 h, 25 µM is reported as 0.805%. Work on `O=C(CCl)NCCc1ccc(Cl)cc1Cl` [6-M16, 2-chloro-N-[2-(2,4-dichlorophenyl)ethyl]acetamide] yielded a viability at 48 h, 25 µM of 1.06%. For `O=CN1CCN(C(=O)CCl)CC1` [6-M17, 4-(2-chloroacetyl)piperazine-1-carbaldehyde], the viability at 48 h, 25 µM was 2.22%. `CC(Cl)C(=O)N(CCC#N)c1ccccc1` (centres unmarked) [6-M18, 2-chloro-N-(2-cyanoethyl)-N-phenylpropanamide] gave a viability at 48 h, 25 µM of 105%. For `O=C(CCl)N1CCCC1c1ccccc1` (centres unmarked) [6-M19, 2-chloro-1-(2-phenylpyrrolidin-1-yl)ethan-1-one], the viability at 48 h, 25 µM was 0.923%. Work on `O=C(CCl)N1CC2CCC(C1)O2` [6-M20, 2-chloro-1-{8-oxa-3-azabicyclo[3.2.1]octan-3-yl}ethan-1-one] yielded a viability at 48 h, 25 µM of 1.12%. Work on `CC(c1cccs1)N(C)C(=O)CCl` (centres unmarked) [6-M21, 2-chloro-N-methyl-N-[1-(thiophen-2-yl)ethyl]acetamide] yielded a viability at 48 h, 25 µM of 0.384%. In the case of `CC(c1cccc(NC(=O)c2ccccc2)c1)N(C)C(=O)CCl` (centres unmarked) [6-M22, N-{3-[1-(2-chloro-N-methylacetamido)ethyl]phenyl}benzamide], the viability at 48 h, 25 µM is reported as 0.237%. Compound `Cc1cc(C=C2CCN(C(=O)C(C)Cl)CC2)no1` (centres unmarked) [6-N03, 2-chloro-1-{4-[(5-methyl-1,2-oxazol-3-yl)methylidene]piperidin-1-yl}propan-1-one] has a viability at 48 h, 25 µM of 104%. In the case of `Cc1ccc(C)c(NC(=O)CN(C)C(=O)CCl)c1` [6-N04, 2-chloro-N-{[(2,5-dimethylphenyl)carbamoyl]methyl}-N-methylacetamide], the viability at 48 h, 25 µM is reported as 0.906%. `CC(Cl)C(=O)N1CCC(n2c(=O)[nH]c3ccccc32)CC1` (centres unmarked) [6-N05, 1-[1-(2-chloropropanoyl)piperidin-4-yl]-2,3-dihydro-1H-1,3-benzodiazol-2-one] gave a viability at 48 h, 25 µM of 109%. `O=C(CCl)Nc1ccc2oc3ccccc3c2c1` [6-N06, 2-chloro-N-{8-oxatricyclo[7.4.0.0,2,7]trideca-1(9),2(7),3,5,10,12-hexaen-4-yl}acetamide] gave a viability at 48 h, 25 µM of 2.09%. For `CC(Cl)C(=O)N1CCOC(c2ccc(Cl)s2)C1` (centres unmarked) [6-N07, 2-chloro-1-[2-(5-chlorothiophen-2-yl)morpholin-4-yl]propan-1-one], the viability at 48 h, 25 µM was 111%. In the case of `O=C(CCl)NC1CCN(C(=O)CCc2ccccc2)CC1` [6-N08, 2-chloro-N-[1-(3-phenylpropanoyl)piperidin-4-yl]acetamide], the viability at 48 h, 25 µM is reported as 1.6%. For `CCc1nc2cc(CNC(=O)C(C)Cl)ccc2n1C1CC1` (centres unmarked) [6-N09, 2-chloro-N-[(1-cyclopropyl-2-ethyl-1H-1,3-benzodiazol-5-yl)methyl]propanamide], the viability at 48 h, 25 µM was 102%. `CCN(CC)c1ccc(NC(=O)CCl)cc1` [6-N10, 2-chloro-N-[4-(diethylamino)phenyl]acetamide] gave a viability at 48 h, 25 µM of 2.56%. Work on `CC(Cl)C(=O)N1CCC(Cc2ccncc2)C1` (centres unmarked) [6-N11, 2-chloro-1-{3-[(pyridin-4-yl)methyl]pyrrolidin-1-yl}propan-1-one] yielded a viability at 48 h, 25 µM of 106%. In the case of `N#CCCSc1ccccc1NC(=O)CCl` [6-N12, 2-chloro-N-{2-[(2-cyanoethyl)sulfanyl]phenyl}acetamide], the viability at 48 h, 25 µM is reported as 1.44%. With `CC(Cl)C(=O)Nc1ccc2c(c1)ncn2-c1ccccc1` (centres unmarked) [6-N13, 2-chloro-N-(1-phenyl-1H-1,3-benzodiazol-5-yl)propanamide] the viability at 48 h, 25 µM was 105%. `CC(Cl)C(=O)NCc1nnc2n1-c1ccccc1CC2` (centres unmarked) [6-N14, 2-chloro-N-({4H,5H-[1,2,4]triazolo[4,3-a]quinolin-1-yl}methyl)propanamide] gave a viability at 48 h, 25 µM of 110%. `CC(Cl)C(=O)NCCS(=O)(=O)c1cccs1` (centres unmarked) [6-N15, 2-chloro-N-[2-(thiophene-2-sulfonyl)ethyl]propanamide] showed a viability at 48 h, 25 µM of 105%. Compound `CC(Cl)C(=O)N1CCCN(C)c2cc(F)ccc21` (centres unmarked) [6-N16, 2-chloro-1-(7-fluoro-5-methyl-2,3,4,5-tetrahydro-1H-1,5-benzodiazepin-1-yl)propan-1-one] has a viability at 48 h, 25 µM of 101%. `Cc1nn(C)c(N2CCCN(C)CC2)c1CNC(=O)C(C)Cl` (centres unmarked) [6-N17, 2-chloro-N-{[1,3-dimethyl-5-(4-methyl-1,4-diazepan-1-yl)-1H-pyrazol-4-yl]methyl}propanamide] showed a viability at 48 h, 25 µM of 107%. Work on `CC(Cl)C(=O)N1C2CCC1CC1(C2)CC1(F)F` (centres unmarked) [6-N18, 2-chloro-1-{2',2'-difluoro-8-azaspiro[bicyclo[3.2.1]octane-3,1'-cyclopropan]-8-yl}propan-1-one] yielded a viability at 48 h, 25 µM of 112%. Work on `CC(Cl)C(=O)N1CCN(Cc2ccc(C(F)(F)F)cc2)C(=O)C1` (centres unmarked) [6-N19, 4-(2-chloropropanoyl)-1-{[4-(trifluoromethyl)phenyl]methyl}piperazin-2-one] yielded a viability at 48 h, 25 µM of 99.6%. Compound `CC(Cl)C(=O)N1CCN(c2cc(-c3ccccc3F)n[nH]2)CC1` (centres unmarked) [6-N20, 2-chloro-1-{4-[3-(2-fluorophenyl)-1H-pyrazol-5-yl]piperazin-1-yl}propan-1-one] has a viability at 48 h, 25 µM of 86.2%. `CC(Cl)C(=O)N1CCCC(c2nc(-c3cccc(F)c3)no2)C1` (centres unmarked) [6-N21, 2-chloro-1-{3-[3-(3-fluorophenyl)-1,2,4-oxadiazol-5-yl]piperidin-1-yl}propan-1-one] gave a viability at 48 h, 25 µM of 90.2%. `CC(Cl)C(=O)N(c1cccc(C#N)c1)C1CCC1` (centres unmarked) [6-N22, 2-chloro-N-(3-cyanophenyl)-N-cyclobutylpropanamide] gave a viability at 48 h, 25 µM of 90.1%. Work on `COc1ccc(S(N)(=O)=O)cc1NC(=O)CCl` [6-O03, 2-chloro-N-(2-methoxy-5-sulfamoylphenyl)acetamide] yielded a viability at 48 h, 25 µM of 0.606%. Compound `COc1ccc(OC)c(NC(=O)CCl)c1` [6-O04, 2-chloro-N-(2,5-dimethoxyphenyl)acetamide] has a viability at 48 h, 25 µM of 0.314%. In the case of `O=C(CCl)NCCCC1CCCCC1` [6-O05, 2-chloro-N-(3-cyclohexylpropyl)acetamide], the viability at 48 h, 25 µM is reported as 45.7%. `CC1CCCCC1OCCNC(=O)CCl` (centres unmarked) [6-O06, 2-chloro-N-{2-[(2-methylcyclohexyl)oxy]ethyl}acetamide] gave a viability at 48 h, 25 µM of 112%. `Cc1cccc(N(Cc2ccccc2)C(=O)CCl)c1` [6-O07, N-benzyl-2-chloro-N-(3-methylphenyl)acetamide] gave a viability at 48 h, 25 µM of 0.964%. Work on `O=C(CCl)Nc1ccnn1Cc1ccccc1Cl` [6-O08, 2-chloro-N-{1-[(2-chlorophenyl)methyl]-1H-pyrazol-5-yl}acetamide] yielded a viability at 48 h, 25 µM of 0.422%. With `CCOc1ccc(NC(=O)C(C)Cl)cc1` (centres unmarked) [6-O09, 2-chloro-N-(4-ethoxyphenyl)propanamide] the viability at 48 h, 25 µM was 89.5%. For `CCC(NC(=O)CCl)c1ccc(Cl)cc1` (centres unmarked) [6-O10, 2-chloro-N-[1-(4-chlorophenyl)propyl]acetamide], the viability at 48 h, 25 µM was 1.9%. Compound `O=C(O)C1CCN(C(=O)CCl)CC1` [6-O11, 1-(2-chloroacetyl)piperidine-4-carboxylic acid] has a viability at 48 h, 25 µM of 113%. Compound `CS(=O)(=O)c1ccc(CNC(=O)CCl)cc1` [6-O12, 2-chloro-N-[(4-methanesulfonylphenyl)methyl]acetamide] has a viability at 48 h, 25 µM of 1.69%. With `CC(Cl)C(=O)Nc1ccc(OCc2ccccc2)cc1` (centres unmarked) [6-O13, N-[4-(benzyloxy)phenyl]-2-chloropropanamide] the viability at 48 h, 25 µM was 99.7%. `O=C(CCl)Nc1ccc(S(=O)(=O)c2ccc(F)cc2)cc1` [6-O14, 2-chloro-N-[4-(4-fluorobenzenesulfonyl)phenyl]acetamide] showed a viability at 48 h, 25 µM of 0.578%. For `CC(Cl)C(=O)NCc1cccc(Cn2cnc3ccccc32)c1` (centres unmarked) [6-O16, N-({3-[(1H-1,3-benzodiazol-1-yl)methyl]phenyl}methyl)-2-chloropropanamide], the viability at 48 h, 25 µM was 116%. Work on `O=C(CCl)Nc1cccnn1` [6-O17, 2-chloro-N-(pyridazin-3-yl)acetamide hydrochloride] yielded a viability at 48 h, 25 µM of 118%. Compound `O=C(CCl)NC(c1ccccc1)C1CCCC1` (centres unmarked) [6-O18, 2-chloro-N-[cyclopentyl(phenyl)methyl]acetamide] has a viability at 48 h, 25 µM of 8.29%. For `O=C(CCl)NC1CCCS(=O)(=O)c2ccccc21` (centres unmarked) [6-O19, 2-chloro-N-(1,1-dioxo-2,3,4,5-tetrahydro-1lambda6-benzothiepin-5-yl)acetamide], the viability at 48 h, 25 µM was 5.88%. Compound `C[C@@H](NC(=O)CCl)c1ccccc1` [6-O20, 2-chloro-N-[(1R)-1-phenylethyl]acetamide] has a viability at 48 h, 25 µM of 121%. `CCN(Cc1ccccc1)C(=O)CCl` [6-O21, N-benzyl-2-chloro-N-ethylacetamide] gave a viability at 48 h, 25 µM of 1.53%. `COCc1ccc(CNC(=O)CCl)cc1` [6-O22, 2-chloro-N-{[4-(methoxymethyl)phenyl]methyl}acetamide] gave a viability at 48 h, 25 µM of 99.4%. Compound `CC(Cl)C(=O)N1CCNC(=O)C1Cc1nc2ccccc2o1` (centres unmarked) [6-P03, 3-[(1,3-benzoxazol-2-yl)methyl]-4-(2-chloropropanoyl)piperazin-2-one] has a viability at 48 h, 25 µM of 110%. In the case of `COc1ccc(C2=NN(C(=O)CCl)C(c3cccc(F)c3)C2)cc1` (centres unmarked) [6-P04, 2-chloro-1-[5-(3-fluorophenyl)-3-(4-methoxyphenyl)-4,5-dihydro-1H-pyrazol-1-yl]ethan-1-one], the viability at 48 h, 25 µM is reported as 0.182%.
